{
  "source": "paper PMC7738508",
  "about": "“A therapeutic combination of two small molecule toxin inhibitors provides broad preclinical efficacy against viper snakebite” (Nature Communications, 2020)",
  "key": {"[1]": {"test_system": "procoagulant activity of viper venoms (citrated bovine plasma)", "test": "plasma clotting assay, viper venoms overall", "type": "biochemical", "conditions": "range across all venoms; lower end of dimercaprol and marimastat ranges given as < 0.15; read-out: IC50, inhibition of procoagulant venom activity", "experimental": "(§1) We used a previously developed plasma clotting assay[35] to measure venom-induced coagulation. Briefly, 100 ng of each venom was incubated at 37 °C for 30 min in the presence or absence of inhibitors (150 µM to 150 nM final concentrations). The final reaction consisted of 10 µl venom ± inhibitors in PBS, 20 µl 20 mM CaCl2, and 20 µl citrated bovine plasma (VWR). The samples were pipetted in triplicate into 384-well plates, and absorbance monitored at 595 nm for 2 h at 25 °C on an Omega FLUOstar instrument. We calculated the maximum clotting velocity of each of the curves as per clot waveform analysis, by calculating the maximum of the first derivative. The means of at least three independent experimental runs for each condition were plotted at each inhibitor concentration with SEMs."}, "[2]": {"test_system": "coagulopathic activity of Daboia russelii venom (citrated bovine plasma)", "test": "plasma clotting assay", "type": "biochemical", "parameters": "key to maximum clotting velocity: max of first derivative of A595 clot curve (max clotting velocity)", "conditions": "for maximum clotting velocity: Daboia russelii venom 100 ng, independent repeats", "experimental": "as §1"}, "[3]": {"parameters": "method as in PMID 29735645", "conditions": "cited from earlier work"}, "[4]": {"test_system": "SVMP bioactivity of the four active venoms (E. ocellatus, E. carinatus, B. asper, B. arietans)", "test": "in vitro kinetic fluorogenic SVMP assay, viper venoms overall", "type": "biochemical", "conditions": "four active venoms; marimastat 150 nM to 150 µM, batimastat […] and 150 nM", "experimental": "(§2) The SVMP assay measuring metalloproteinase activity and the plasma assay measuring coagulation in the presence or absence of venoms and inhibitors were performed as previously described. The SVMP assay kinetically measured cleavage of a quenched fluorogenic substrate (ES010, R&D Biosystems) by venom in the presence or absence of inhibitors.\n(§3) Briefly, 10 µl of the substrate (supplied as a 6.2 mM stock) was used per 5 ml reaction buffer (150 mM NaCl, 50 mM Tris-Cl pH 7.5). Reactions consisted of 10 µl of venom ± inhibitors in PBS and 90 µl of substrate. Venoms were used at 1 µg/reaction and final inhibitor concentrations ranged from 150 µM to 150 nM. Samples were preincubated for 30 min at 37 °C and pipetted in triplicate into 384-well plates (Greiner). Thereafter, data was collected on an Omega FLUOstar (BMG Labtech) instrument at an excitation wavelength of 320 nm and emission wavelength of 405 nm at 25 °C for 1 h. The areas under the curve (AUCs) in the 0–40 min interval were calculated for each sample using MARS data analysis software v3.31 (BMG Labtech); this time point was chosen as the time where all fluorescence curves had reached a plateau (maximum fluorescence). For comparing venom-only samples, the means of at least three independent experimental runs for each condition, expressed as AUCs (n ≥ 3), were plotted at each inhibitor concentration with standard error of the mean (SEM). To determine inhibitor efficacy, the AUCs for each of the samples that consisted of venom + inhibitors were transformed and expressed as percentages of the venom-only sample (where the venom was 100%). The negative control (PBS-only) was also expressed relative to the venom, and the variation in background was presented as an interval delineated by the lowest and highest values in the PBS-only samples across concentrations and inhibitors for a specific venom."}, "[5]": {"test_system": "Bitis arietans venom SVMP activity", "test": "fluorogenic SVMP assay", "type": "biochemical", "conditions": "independent repeats", "experimental": "as §2, §3"}, "[6]": {"test_system": "Echis ocellatus venom SVMP activity", "test": "fluorogenic SVMP assay", "type": "biochemical", "conditions": "independent repeats", "experimental": "as §2, §3"}, "[7]": {"test_system": "Bothrops asper venom SVMP activity", "test": "fluorogenic SVMP assay", "type": "biochemical", "conditions": "independent repeats", "experimental": "as §2, §3"}, "[8]": {"test_system": "Echis carinatus venom SVMP activity", "test": "fluorogenic SVMP assay", "type": "biochemical", "conditions": "inhibitor 15 µM, independent repeats", "experimental": "as §2, §3"}, "[9]": {"conditions": "cited from earlier work"}, "[10]": {"test_system": "procoagulant activity of Echis carinatus venom (citrated bovine plasma)", "test": "plasma clotting assay", "type": "biochemical", "parameters": "key: max of first derivative of A595 clot curve (max clotting velocity)", "conditions": "Echis carinatus venom 100 ng, independent repeats", "experimental": "as §1"}, "[11]": {"test_system": "procoagulant activity of Bothrops asper venom (citrated bovine plasma)", "test": "plasma clotting assay", "type": "biochemical", "conditions": "Bothrops asper venom 100 ng, independent repeats", "experimental": "as §1"}, "[12]": {"test_system": "procoagulant activity of Echis ocellatus venom (citrated bovine plasma)", "test": "plasma clotting assay", "type": "biochemical", "conditions": "Echis ocellatus venom 100 ng, independent repeats", "experimental": "as §1"}, "[13]": {"type": "in vivo, CD-1 mice", "conditions": "no venom; 60 µg of each drug, i.v.; listed as M", "quoted_text": "All experimental animals (18–20 g [4–5 weeks old], male, CD-1 mice, Charles River, UK) were housed in groups of five with environmental enrichment, water and food ad libitum and their health monitored daily during acclimatization. The experimental design was based upon 3R-refined WHO-recommended protocols[28],[41], with animals randomized and observers being blinded to the experimental condition.\nAll experimental doses were prepared to a volume of 200 µl in PBS and incubated at 37 °C for 30 min prior to their intravenous injection via the tail vein. Animals were monitored for 6 h, and euthanized via rising concentrations of CO2 upon observation of previously defined humane end points that are predicators of lethality (e.g., seizure, pulmonary distress, paralysis, hemorrhage)[28]. Deaths, time of death, and survivors were recorded; where death/time of death actually represents the implementation of euthanasia based on defined humane end points.\nFor all experimental animals described above, blood samples were collected via cardiac puncture immediately post-euthanasia. Plasma was separated by centrifugation at 400 × g for 10 min and stored at −80 °C. We assessed the levels of thrombin-antithrombin complexes (TAT) and soluble thrombomodulin using mouse ELISA Kits (ab137994 and ab209880, Abcam), following the manufacturer’s protocol. […] The resulting data was plotted as the median of duplicate measurements for each animal and is presented with standard deviations (SDs)."}},
  "note": "Several values for one entry are separate records, joined by “and”; a condition that tells them apart may be missing. Equal values may be shown once. Read-outs that look alike come from different tables or passages of the source.",
  "data": [
    {"smiles": "CNC(=O)[C@@H](NC(=O)[C@H](CC(C)C)[C@H](O)C(=O)NO)C(C)(C)C", "note": "[marimastat]", "values": [
      {"measurement": "IC50", "setting": "[1]", "value": "150 to 1920", "unit": "nM"},
      {"measurement": "effect on clotting after complete neutralization of SVMP activity", "setting": "[2]; D. russelii venom, high doses", "value": "revealed clear venom anticoagulant effects"},
      {"measurement": "maximum clotting velocity", "setting": "[2]; inhibitor 15 µM", "value": "0.01941 and 0.01206 and 0.01103"},
      {"measurement": "maximum clotting velocity", "setting": "[2]; inhibitor 150 µM", "value": "0.005735 and 0.003235"},
      {"measurement": "solubility compared with batimastat", "setting": "[3]", "value": "increased solubility"},
      {"measurement": "neutralization of SVMP bioactivity", "setting": "[4]", "value": "complete in vitro neutralization"},
      {"measurement": "SVMP activity, percentage of the venom-only sample", "setting": "[5]; inhibitor 15 µM", "value": "15.1667% and 15.8748% and 15.6727%"},
      {"measurement": "SVMP activity, percentage of the venom-only sample", "setting": "[5]; inhibitor 150 µM", "value": "14.1911% and 15.0205% and 14.976%"},
      {"measurement": "SVMP activity, percentage of the venom-only sample", "setting": "[6]; inhibitor 15 µM", "value": "19.3205% and 20.8108% and 21.1203%"},
      {"measurement": "SVMP activity, percentage of the venom-only sample", "setting": "[6]; inhibitor 150 µM", "value": "18.1136% and 19.6025% and 15.3204%"},
      {"measurement": "SVMP activity, percentage of the venom-only sample", "setting": "[7]; inhibitor 15 µM", "value": "33.0579% and 34.1722% and 57.3186%"},
      {"measurement": "SVMP activity, percentage of the venom-only sample", "setting": "[7]; inhibitor 150 µM", "value": "29.6154% and 33.7275% and 43.4535%"},
      {"measurement": "SVMP activity, percentage of the venom-only sample", "setting": "[8]", "value": "11.481% and 22.9494% and 21.3373%"},
      {"measurement": "daily doses with no notable side effects", "setting": "[9]; 28 days, patients with advanced pancreatic cancer", "value": 75, "unit": "mg"},
      {"measurement": "single doses with no notable side effects", "setting": "[9]", "value": "up to 800 mg"},
      {"measurement": "bidaily doses with no notable side effects", "setting": "[9]; for 6.5 days", "value": 200, "unit": "mg"},
      {"measurement": "oral bioavailability", "setting": "[9]; no reference given", "value": 70, "unit": "%"},
      {"measurement": "half-life", "setting": "[9]; oral", "value": "8 to 10", "unit": "h"},
      {"measurement": "time to peak plasma concentrations post-administration", "setting": "[9]; oral", "value": "1.5 to 3", "unit": "h"},
      {"measurement": "oral bioavailability", "setting": "[9]; vs parenteral administration of batimastat", "value": "excellent oral bioavailability"},
      {"measurement": "maximum clotting velocity", "setting": "[10]; inhibitor 15 µM", "value": "0.03177 and 0.03235"},
      {"measurement": "maximum clotting velocity", "setting": "[10]; inhibitor 150 µM", "value": "0.03353 and 0.03265 and 0.02823"},
      {"measurement": "maximum clotting velocity", "setting": "[11]; inhibitor 15 µM", "value": "0.02338 and 0.02609 and 0.02203"},
      {"measurement": "maximum clotting velocity", "setting": "[11]; inhibitor 150 µM", "value": "0.02696 and 0.02551 and 0.02522"},
      {"measurement": "maximum clotting velocity", "setting": "[12]; inhibitor 15 µM", "value": "0.0225 and 0.02559 and 0.02899"},
      {"measurement": "maximum clotting velocity", "setting": "[12]; inhibitor 150 µM", "value": "0.02088 and 0.02471 and 0.02435"},
      {"measurement": "thrombin-antithrombin (TAT) levels, drug-only control animals", "setting": "[13]", "value": "16.1111 ng/mL and 15.7371 ng/mL and 12.5653 ng/mL"}
    ]}
  ]
}
